Values of other authors as cited in patent publication US20130109633A1, “CB-183,315 Compositions and Related Methods” (Cubist Pharmaceuticals, Inc., priority 2011, published 2013).

System: a broad spectrum of bacteria, including drug-resistant bacteria and C. difficile

Substance: CB-183,315
- antibacterial activity: antibacterial activity against a broad spectrum of bacteria
- bacteriacidal activity: exhibits bacteriacidal activity
